Data from US6248718A, “Lesion-directed dry dosage forms of antibacterial agents for the treatment of acute mucosal infections of the oral cavity” (priority 1999, dated 2001).
“And” between values parts separate entries of the source, which are not always exact repeats. Equal values may be shown once. “Also recorded” adds a separate entry of the source.

Assays:
[1] = tested on: bacteria in saliva in the vicinity of the canker ulcer; assay: Bacterial inhibition in saliva of canker sore patients in vivo (Example VI)
Description: Six (6) adult, otherwise healthy patients suffering from recurrent minor canker sores were selected for this study from July 10 to Nov. 12, 1998. The drug substance used for this study was crystalline penicillin G potassium salt, U.S.P. grade, purchased from Sigma Chemical Co., St. Louis, Mo. 63178 (Lot No. 57H1195).
On the first or the second day after the patients noticed the formation of the canker ulcers, 50 mg of penicillin G potassium was administered topically with a spatula or the handle of a teaspoon as dry powder directly over the canker ulcers, four times a day, i.e. after breakfast, after lunch, after supper and before bed time. The patients were advised to retain the antibiotic powder and its concentrated solution in a small pocket of saliva at the site of the ulcer and to avoid its excessive dilution by saliva from other parts of the oral cavity for one hour after each application of the antibiotic powder. No food or drink was allowed during this one-hour period.
Samples of 0.1 ml of saliva at the site in the vicinity of the canker ulcer were pipetted from the mouth immediately before instituting the first penicillin G potassium application and about 60-70 minutes after the first antibiotic application. Each sample was spread on the surface of a 10-cm blood agar Petri dish with a sterile plastic loop. The inoculated plates were incubated aerobically at 37° C. for 18 hours as described above. The total numbers of bacterial colonies on each plate were estimated. The dominating species of the microorganisms were identified according to the approved protocols routinely used in a clinical microbiology laboratory. The results are tabulated as follows
(§1) On day 2, about 48 hours after the medication was initiated, the patients collected an early morning sample of saliva immediately after getting up and submitted it to the laboratory for culture. While in the laboratory, a second sample of the residual exudate covering the ulcer was taken from the patient for a post-treatment follow-up microscopy after Congo red negative staining.
On day 6, i.e. two days after the last dose of medication, the patients were instructed to collect a sample of saliva in a sterile test tube upon waking up in the morning before brushing their teeth. The saliva was brought to the laboratory. Aliquot of 0.1 ml of each saliva sample was pipetted and inoculated on the surface of a blood agar plate and incubated aerobically as described previously. After 18 hours of incubation, there were more 3,000 colonies growing on each blood agar plate. The overwhelming majority of the colonies were those of Neisseriae and non-β-hemolytic streptococci, similar to those observed in FIG. 1.

[2] = tested on: Staphylococcus aureus ATCC 29213; assay: MIC for standard strain used in saliva antibiotic assay (Examples VII-IX); assay type: cell-based; conditions: Staphylococcus aureus, ATCC29213; nutrient broth, 37° C., 18 hours
Description: Each filtered mixture in test tube was inoculated with 0.1 ml of a 1:1,000 dilution of a 12 hour broth culture of Staphylococcus aureus ATCC 29213.
A row of 6 test tubes each containing 2 ml of nutrient broth with decreasing concentrations of penicillin G potassium from 6.2 to 0.16 mcg/ml, using a serial double dilution method described in a., was prepared and similarly inoculated with 0.1 ml broth culture of Staphylococcus aureus ATCC 29213 as the standard.
All test tubes were incubated at 37° C. for 18 hours and observed for bacterial growth against an inoculated broth containing neither antibiotic nor saliva samples.
In this study, the drug powder was suspended in one teaspoonful of water and swallowed by the test subjects two hours after breakfast, followed by drinking an 8 Oz. glass of water. The test subjects refrained from drinking or eating for the next three hours. Six samples of saliva were collected from each subject at 30-minute intervals in succession in the next three hours. An aliquot of 0.2 ml from each saliva sample was transferred to 3.8 ml of nutrient broth. The mixture of the latter was forced to pass a bacterial filter. Two (2) ml of the bacteria-free filtrate was pipetted out into a sterile test tube and inoculated with 0.1 ml of a 1:1,000 dilution of a 12 hours broth culture of Staphylococcus aureus ATCC 29213 and incubated at 37° C. for 18 hours. […]

[3] = tested on: microbes in the exudate covering the canker ulcer; assay: Congo red negative stain microscopy of canker ulcer exudate (Example VI); assay type: in vivo, human oral flora; conditions: penicillin G potassium 50 mg four times a day, about 48 hours
Description: Before the initiation of treatment, a small amount of exudate was scraped off the grayish-white covering of the ulcer with a toothpick and mixed with a drop of aqueous solution of Congo red for a negative stain smear. After the dried smear was exposed to concentrated hydrochloric acid vapor, the negative-stained microorganisms were examined microscopically.
as §1

bacteria in human saliva = assay: Inhibition of bacterial growth in human saliva in vitro (Example IV); assay type: cell-based; conditions: for bacterial growth from treated saliva: 1 h, aerobic blood agar
Description: For this study, five healthy adult volunteers, three men and two women, were asked to refrain from drinking and eating for two hours after breakfast. At the end of two hours, about five (5) ml of saliva was obtained from the oral cavity of each volunteer. Aliquots of 0.1 ml of saliva were pipetted immediately from each saliva sample and spread over the surface of two 5% sheep blood agar plates with a sterile plastic loop. One inoculated blood agar plate was incubated in an aerobic atmosphere containing 5% CO2, and the other anaerobically at 37° C. for 18 hours, as untreated controls.
Aliquots of 0.2 ml of the saliva from each volunteer's sample were pipetted into sterile test tubes, and labeled from No. 2 to No. 13. Five equal doses of dry powder of the USP grade penicillin G potassium salt, 200 mg each, were weighed and put into five sterile test tubes, all labeled No. 1. The dry powder of antibiotic was dissolved in 0.4 ml saliva obtained from each of the five volunteers to constitute an initial concentration of antibiotic concentration of […] in saliva. An aliquot of 0.2 ml of the saliva antibiotic solution was pipetted from tube No. 1 into tube No. 2. After having been thoroughly mixed, 0.2 ml of the content in tube No. 2 was pipetted to tube No. 3, and so forth continuously in succession to make a serial double dilution of penicillin G potassium solutions in saliva through tube No. 13. Finally, the test tubes contained different concentrations of penicillin G potassium in the saliva of five volunteers, as follows.
The mixtures of antibiotic and saliva in the test tubes were incubated at 37° C. One hour later, an aliquot of 0.1 ml was pipetted from the content of each tube, first dropped in the center of a blood agar plate and then spread to the periphery of the plate surface. The plates were incubated aerobically at 37° C. with 5% carbon dioxide in the atmosphere for 18 hours and were examined for bacterial growth.

CC1(C)S[C@@H]2[C@H](NC(=O)Cc3ccccc3)C(=O)N2[C@H]1C(=O)O [penicillin G potassium]
duration of inhibitory effect on oral flora ([1]; 50 mg): not long-lasting | alteration of normal oral flora ([1]; 50 mg four times a day, intermittent): not permanently altered; also recorded: did not seem to alter the dominant microbial components of the normal flora | Colonies after Treatment ([1]; 50 mg powder, about 60-70 minutes, 0.1 ml saliva, per patient, Y = yeast): 0 and 2 and Two | inhibition of bacteria in saliva covering the ulcer ([1]; 50 mg powder, about one hour): totally destroyed or inhibited; also recorded: intermittent total inhibition of bacterial growth in the saliva | bacterial colonies in early morning saliva ([1]; day 2, about 48 hours after start of medication, 0.1 ml): more than 3,000 bacterial colonies | bacterial colonies in morning saliva ([1]; day 6, two days after last dose, 0.1 ml): > 3,000 colonies | MIC [2]: 0.75 µg/mL | microbes in exudate after topical treatment [3]: Only very rare cocci were found; also recorded: practically eliminated | bacterial growth from treated saliva (bacteria in human saliva; 1 mg/ml): Scattered bacterial colonies began to appear; also recorded: the inhibition is not complete; also recorded: A few surviving or uninhibited bacteria grew into colonies | bacterial growth from treated saliva (bacteria in human saliva; 2 mg/ml or above): No bacterial colonies were visible; also recorded: practically inhibits the growth of all of the salivary bacteria; also recorded: either destroyed or totally inhibited | MIC (bacteria in human saliva; Homo sapiens, read-out: concentration sufficient to kill or inhibit practically all salivary bacteria): 1000 to 2000 µg/mL
